# What was measured:
# [1] = tested on: retinal microvascular endothelial cell invasion; test: HGF-induced retinal endothelial cell invasion; assay type: cell-based
# Description: The effect of A6 on HGF and its receptor, c-Met, in retinal angiogenesis has been examined.
# [2] = tested on: breast cancer; test: Compassionate use, breast cancer patient; assay type: in vivo, human; conditions: A6 150 mg/day for 9 years, after Taxol 268 mg daily for 2 weeks
# Description: A6 was administered in combination with paclitaxel as a compassionate use.
# [3] = tested on: FAK phosphorylation in CD44-positive SKOV3 cells; test: FAK phosphorylation signaling study; assay type: cell-based, human
# Description: (§1) Human ovarian SKOV3 cells were bound and cross-linked to A6. […] To determine if this binding influenced CD44-mediated activity, and to determine if a functional relationship existed between A6 and CD44, intracellular signaling studies were conducted.
# [4] = tested on: HEY/C2 (DDP resistant) cells; test: CCK-8 cytotoxicity of DDP/PTX with or without A6; assay type: cell-based; conditions: 100 μM A6; 72 hours; 10% FBS
# Description: The cells were plated in 96-well plates as described and incubated overnight. […] The CCK-8 assay described herein was performed to access cytotoxicity of DDP/PTX.
# [5] = molecular target: T1, CD44 (Homo sapiens, UniProt P16070); test: Perturbation of anti-CD44 antibody binding to SKOV3 cells
# [6] = tested on: U87MG human glioma cells; test: Subcutaneous glioma xenograft; assay type: in vivo, BALB/c (nu/nu) mice
# Description: Glioblastoma: In animal models of glioblastoma, U87MG human glioma cells were implanted subcutaneously or intracranially in BALB/c (nu/nu) mice and the animals were divided into different treatment groups. […] In this study the effects of cisplatin were also examined.
# [7] = tested on: B16-F10 cells; test: Inhibition of chemotaxis; assay type: cell-based; conditions: read-out: IC50 for A6 inhibition of chemotaxis
# [8] = tested on: advanced gynecologic cancer; test: Phase 1b trial in advanced gynecologic cancer
# Description: Advanced Gynecologic Cancer: A Phase 1b trial, was conducted in women with advanced gynecologic cancer. […] The study used a sequential dose-escalation design, with the lowest-dose group (4 patients) receiving A6 for cycles of 14 days “on” followed by 14 days “off”, a regimen not expected to produce any therapeutic effect. […] Patients continued treatment until disease progression or unacceptable toxicity. Response was evaluated as defined by RECIST and the Gynecologic Cancer Intergroup (GCIG) CA-125 response criteria.
# [9] = tested on: 2008/C13*5.25 cells; test: CCK-8 cytotoxicity, A6 plus DDP; assay type: cell-based, human; conditions: A6 1, 10 or 100 μM 1 h, then 1 h A6 plus DDP; 10% FBS
# Description: (§2) Conditions: Drugs: DDP (3.33 mM stock) and A6 (109.8 mM stock); Drug exposure time: 1 hour ; Cell line: 2008 and its DDP-resistant subline 2008/C31*5.25; Media: RPMI 1640 plus 10% FBS containing 1 mM penicillin/streptomycin; Cytotoxicity Assays: CCK-8 (Cell Counting Kit 8—Dojindo Molecular Technologies).
# (§3) Tissue culture plates containing 96-well plates were seeded with 3000 cells in 100 μl of media per well. The wells on rows A-D were seeded with 2008 cells, while the wells on rows E-H were seeded with 2008/C13*5.25 cells. The cells were allowed to attach overnight in a 37° C. in 5% CO2 incubator. Approximately 24 h later medium was removed by aspiration and the cells were exposed to 0, 1, 10 or 100 μM A6 peptide in 100 μl. After 1 h, increasing concentrations of DDP were added to triplicate wells in 100 μl medium. Following a 1 h exposure to the combination of A6 and DDP, the drugs were removed by aspiration. The cells were then allowed to grow for 96 h following which the plates were assayed for relative cell growth with the CCK-8 assay.
# (§4) The assay was performed using triplicate wells for each DDP concentration. […]
# [10] = tested on: 2008 cells; test: CCK-8 cytotoxicity, A6 plus DDP; assay type: cell-based, human; conditions: A6 1, 10 or 100 μM 1 h, then 1 h A6 plus DDP; 10% FBS
# Description: as §2, §3, §4
# [11] = tested on: A2780/CP cells; test: CCK-8 cytotoxicity, A6 plus DDP; assay type: cell-based, human; conditions: A6 1, 10 or 100 μM 1 h, then 1 h A6 plus DDP; 10% FBS
# Description: Study Conditions. Drugs: […] Drug exposure time: 1 hour; Cell line: […] Media: RPMI 1640 plus 10% FBS containing 1 mM penicillin/streptomycin; Cytotoxicity Assays: CCK-8 (Cell Counting Kit 8-Dojindo Molecular Technologies). Tissue culture plates containing 96-well plates were seeded with 4000 cells in 100 μl of media per well. The wells on rows A-[…] cells, while the wells on rows E-[…]/CP cells. […] After 1 h, increasing concentrations of DDP were added to triplicate wells in 100 μl medium. […] The cells were then allowed to grow for 96 h following which the plates were assayed for relative cell growth with the CCK-8 assay. CCK-8 assay. Five μl of CCK-8 stain was added to each well and the plate was incubated at 37° C. incubator for 4 h. The plate was read with a microplate reader at a wavelength of 450 nm. (See FIGS. 5A-5D and FIG. 6). The assay was performed using triplicate wells for each DDP concentration. The data in the tables below is the optical density in the well which is a function of the number of live cells remaining at the end of the 96 h growth period.
# [12] = tested on: CD44-positive SKOV3 cells; test: Boyden chamber migration; assay type: cell-based, human; conditions: compared to untreated control
# [13] = tested on: CD44-negative A2780 cells; test: Boyden chamber migration; assay type: cell-based, human
# [14] = Clinical safety profile of A6 (summary); conditions: human, in vivo
# [15] = molecular target: T1, CD44; test: Cross-linking, immunoprecipitation and immunoblotting of SKOV3 lysates; assay type: binding; conditions: SKOV3 cells bound and cross-linked to A6
# Description: as §1
# [16] = tested on: MDA-MB-231 human mammary carcinoma xenografts; test: Mammary carcinoma xenograft model; parameters: species or system BALB/c (nu/nu) mice; conditions: mouse, in vivo
# Description: Mammary: The effects of A6 in mammary tumor and metastasis models were investigated. […] The effect of A6 in Fisher rats inoculated with Mat B-111 syngeneic mammary carcinoma cells was evaluated.
# [17] = tested on: ovarian cancer
# [18] = tested on: B16F10-DsRed cells; test: B16F10-DsRed Cell Lung Metastasis Model; assay type: in vivo, C57BL/6 mice; conditions: for tumor burden in the lungs: A6 200 mg/Kg SC QD, day 12
# Description: B16F10-DsRed cells were harvested from cells culture. 1×10^6 cells/200 μl were inoculated into DPBS/mouse via bilateral tail vein in 48 female C57BL/6 mice (Charles River).
# Mice were randomized into six groups: Grp1 no treatment, Grp2 PTX (10 mg/Kg, IP on days 1 and 8), Grp3 DDP (4 mg/Kg, IP, day 1, 4 and 8), Grp4 A6 (200 mg/Kg, SC, QD), Grp5 A6 plus PTX, Grp6 A6 plus DDP. Animals were weighed before dosing and then twice a week.
# Dosing: A6 dosing started immediately after cell inoculation and consecutively for 11 days; DDP/PTX dosing started immediately after inoculation and then on days as above. The study was ended on day 12, and the lungs were harvested to determine metastatic burden.
# T1 sequence (P16070 21-742): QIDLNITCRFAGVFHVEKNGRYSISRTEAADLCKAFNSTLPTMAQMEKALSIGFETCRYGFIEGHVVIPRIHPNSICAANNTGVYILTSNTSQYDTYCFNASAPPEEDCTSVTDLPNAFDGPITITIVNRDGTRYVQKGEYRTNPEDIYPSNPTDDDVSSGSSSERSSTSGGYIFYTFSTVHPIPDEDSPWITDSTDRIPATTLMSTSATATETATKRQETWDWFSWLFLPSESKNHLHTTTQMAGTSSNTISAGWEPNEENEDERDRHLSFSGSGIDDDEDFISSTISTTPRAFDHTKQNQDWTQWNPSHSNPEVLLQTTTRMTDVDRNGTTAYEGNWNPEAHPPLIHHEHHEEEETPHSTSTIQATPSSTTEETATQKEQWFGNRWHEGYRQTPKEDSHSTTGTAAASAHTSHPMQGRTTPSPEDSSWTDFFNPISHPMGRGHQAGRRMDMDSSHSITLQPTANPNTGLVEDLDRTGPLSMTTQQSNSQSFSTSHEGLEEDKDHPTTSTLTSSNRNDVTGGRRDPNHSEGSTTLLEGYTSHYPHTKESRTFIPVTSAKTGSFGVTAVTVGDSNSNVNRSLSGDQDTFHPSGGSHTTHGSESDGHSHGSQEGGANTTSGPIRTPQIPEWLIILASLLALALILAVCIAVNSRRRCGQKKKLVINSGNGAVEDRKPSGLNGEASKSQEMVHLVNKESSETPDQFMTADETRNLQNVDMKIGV
substance,measurement,setting,value
"Ac-KPSSPPEE-NH2 [A6, Ac-KPSSPPEE-NH2]",HGF-induced retinal endothelial cell invasion,[1],reduced to control levels
same,clinical outcome,[2],complete remission
same,FAK phosphorylation,[3],modulate FAK phosphorylation
same,sensitivity of cells to cisplatin,[4],did not affect sensitivity
same,sensitivity of cells to paclitaxel,[4],did not affect sensitivity
same,binding of the anti-CD44 antibody DF1485 to CD44-expressing SKOV3 cells,[5]; antibody DF1485,partial inhibition
same,binding of the anti-CD44 antibody IM7,[5]; antibody IM7,did not interfere
same,time to progression following discontinuation of treatment,[6],prolonged the time to progression
same,adverse events,"human, in vivo",no systemic drug-related adverse events
same,cumulative increase in concentration over time,"human, in vivo",no cumulative increase in concentration over time was detected
same,anti-A6 antibody production,"subcutaneous twice daily for 6 days, day 14",no anti-A6 antibody production was detected
same,IC50,[7],29 nM
same,median time to progression (TTP),[8]; continuous treatment,78 days
same,safety outcome,[8]; in vivo,no specific toxicity profile
same,median time to progression (TTP),"[8]; intermittent therapy (14 days on, 14 days off)",44 days
same,patients with disease stabilization,[8]; patients dosed continuously,Greater than 40%
same,modulation of sensitivity to DDP,[9],failed to modulate the sensitivity
same,modulation of sensitivity to DDP,[10],failed to modulate the sensitivity
same,modulation of sensitivity to DDP,[11],failed to modulate the sensitivity
same,inhibition of migration,[12],> 85%
same,effect on migration,[13],no effect
same,safety profile,[14],"no immunogenicity, no dose-limiting toxicities, no serious side-effects"
same,direct interaction with CD44,[15],binding to CD44
same,metastasis,[16],An inhibition of metastasis was noted
same,CA125 response,[17]; in vivo,not associated with CA125 response
same,complete responses,[17]; in vivo,no complete responses
same,patients achieving stable disease,[17]; in vivo,36%
same,safety profile,[17]; in vivo,comparable to that of control (placebo) treatment
same,median progression free survival (PFS),[17]; placebo 49 days,100 days
same,tumor burden in the lungs,[18]; in the presence or absence of cisplatin,not significantly reduced
same,tumor burden in the lungs,"[18]; in the presence or absence of paclitaxel, 200 mg/kg",not significantly reduce
same,antimetastatic activity of cisplatin or paclitaxel on addition of A6,"[18]; mouse, in vivo",did not increase antimetastatic activity
